Reference: US10941379B2, “Microbial system for biosynthesis of natural and engineered products coupled to in situ extraction in supercritical CO2” (Massachusetts Institute of Technology, priority 2016, dated 2021)
Peptide text beside a SMILES is read from it.

System: B. megaterium SR7
Test: Biolog GenIII sole carbon source growth
Format: cell-based, Bacillus megaterium
Details: for Growth in carbon source Biolog plate, +Metals: trace metals-amended plate; for Growth in carbon source Biolog plate, +Metals / Growth in carbon source Biolog plate, I / Growth in carbon source Biolog plate, II: Table 11; for Growth in carbon source Biolog plate, I: unamended plate trial I; for Growth in carbon source Biolog plate, II: unamended plate trial II
Description: Plates were incubated at 37° C. on a plate shaker at 200 rpm and assayed for growth using NADH-dependent colorimetric changes measured by OD490 on a microplate reader (BioTek Synergy 2; BioTek; Winooski, Vt.).

Compound | Growth in carbon source Biolog plate, +Metals | Growth in carbon source Biolog plate, I | Growth in carbon source Biolog plate, II | Growth on Biolog sole carbon source, SR7 (no metals added, Table 10)
Gentiobiose | + | + | + | 
OC[C@@H](O)[C@@H](O)[C@H](O)[C@@H](O)CO [D-Sorbitol] | + | + | − | 
Tween 40 | − | − | + | 
COC(=O)[C@@H](C)O [D-Lactic Acid Methyl Ester] | + | + | + | 
N[C@H](CC(=O)O)C(=O)O [D-Aspartic Acid] | − | − | − | 
OC[C@@H](O)C(O)[C@H](O)CO [D-Arabitol] | + | + | + | 
NCC(=O)N1CCC[C@H]1C(=O)O [Glycyl-L-Proline] (H-Gly-Pro-OH) | − | − | − | 
O=C[C@H](O)[C@@H](O)[C@H](O)[C@H](O)C(=O)O [D-Glucuronic Acid] | − | + | + | 
NC(=O)[C@@H](O)[C@@H](O)[C@H](O)[C@@H](O)C=O [Glucuronamide] | − | − | − | 
C[C@@H](O)[C@H](O)[C@H](O)[C@@H](O)C=O [D-Fucose] | − | − | − | 
CC(=O)N[C@H]1[C@H]([C@H](O)[C@H](O)CO)OC(O)(C(=O)O)C[C@@H]1O (stereo partly drawn) [N-Acetyl Neuraminic Acid] | − | − | − | 
OC[C@H]1O[C@@H](O[C@H]2[C@H](O)[C@@H](O)[C@H](O)O[C@@H]2CO)[C@H](O)[C@@H](O)[C@@H]1O [D-Cellobiose] | + | + | + | 
O=C(O)Cc1ccc(O)cc1 [p-Hydroxy-Phenylacetic Acid] | − | − | − | 
C[C@H](O)[C@H](O)[C@@H](O)[C@@H](O)C=O [L-Rhamnose] | − | − | − | 
O[C@H]1[C@H](O)[C@@H](O)[C@H](O)[C@@H](O)[C@H]1O [myo-Inositol] | +++ | − | + | 
O=C[C@H](O)[C@@H](O)[C@@H](O)[C@H](O)C(=O)O [D-Galacturonic Acid] | − | − | + | 
O=C(O)C[C@@H](O)C(=O)O [D-Malic Acid] | − | − | − | 
O=C[C@H](O)[C@@H](O)[C@@H](O)[C@H](O)CO [D-Galactose] | + | + | + | 
OC[C@H]1O[C@@H](n2cnc3c(O)ncnc32)[C@H](O)[C@@H]1O [Inosine] | + | − | + | 
O=C(O)CC(O)(CC(=O)O)C(=O)O [Citric Acid] | +++ | +++ |  | 
CC(=O)N[C@H]1C(O)O[C@H](CO)[C@H](O)[C@@H]1O (stereo partly drawn) [N-Acetyl-D-Galactosamine] | − | + | − | 
OC[C@H]1O[C@H](OCC2O[C@@H](O)[C@H](O)[C@@H](O)[C@@H]2O)[C@H](O)[C@@H](O)[C@H]1O (stereo partly drawn) [D-Melibiose] | + | + | + | 
D-Turanose | +++ | + | + | 
N=C(N)NCCC[C@H](N)C(=O)O [L-Arginine] | +++ | + | + | 
O=CO [Formic Acid] | − | + | − | 

Compound | Growth in carbon source Biolog plate, +Metals | Growth in carbon source Biolog plate, I | Growth in carbon source Biolog plate, II | Growth on Biolog sole carbon source, SR7 (no metals added, Table 10)
O=C[C@@H](O)[C@@H](O)[C@H](O)[C@H](O)CO [D-Mannose] | − | − | − | 
OC[C@H]1O[C@@H](O[C@H]2[C@H](O)[C@@H](O)[C@@H](O)O[C@@H]2CO)[C@H](O)[C@@H](O)[C@H]1O [α-D-Lactose] | + | + | + | 
O=C(CO)[C@@H](O)[C@H](O)[C@H](O)CO [D-Fructose] | + | + | + | 
OCC(O)CO [Glycerol] | + | + | + | 
CCC(=O)O [Propionic Acid] | − | − | + | 
C[C@H](O)[C@@H](O)[C@@H](O)[C@H](O)C=O [L-Fucose] | − | − | − | 
N[C@@H](CO)C(=O)O [L-Serine] | − | + | + | 
OC[C@H]1O[C@H](OC[C@H]2O[C@H](O[C@]3(CO)O[C@H](CO)[C@@H](O)[C@@H]3O)[C@H](O)[C@@H](O)[C@@H]2O)[C@H](O)[C@@H](O)[C@H]1O [D-Raffinose] | +++ | − | + | 
O=P(O)(O)OC[C@H]1OC(O)(CO)[C@@H](O)[C@@H]1O (stereo partly drawn) [D-Fructose-6-PO4] | − | + | − | 
O=C1O[C@H]([C@@H](O)CO)[C@@H](O)[C@@H]1O [L-Galactonic Acid Lactone] | − | − | + | 
CO[C@@H]1O[C@H](CO)[C@@H](O)[C@H](O)[C@H]1O [β-Methyl-D-Glucoside] | + | − | + | 
CC(=O)N[C@H]1[C@@H](O)[C@H](O)[C@@H](CO)O[C@H]1O [N-Acetyl-β-D-Mannosamine] | − | − | − | 
OC[C@H]1O[C@H](O[C@H]2O[C@H](CO)[C@@H](O)[C@H](O)[C@H]2O)[C@H](O)[C@@H](O)[C@@H]1O [D-Trehalose] | + | − | + | 
NCCCC(=O)O [Υ-Amino-Butryric Acid] | +++ | − | + | 
OC[C@H]1O[C@H](OC[C@H]2O[C@H](OC[C@H]3O[C@H](O[C@]4(CO)O[C@H](CO)[C@@H](O)[C@@H]4O)[C@H](O)[C@@H](O)[C@@H]3O)[C@H](O)[C@@H](O)[C@H]2O)[C@H](O)[C@@H](O)[C@H]1O [Stachyose] | + | + | + | 
O=C(O)[C@@H](O)[C@H](O)[C@H](O)[C@@H](O)C(=O)O [Mucic Acid] | − | − | + | 
CCC(=O)C(=O)O [α-Keto-Butyric Acid] | − | − | − | 
O=P(O)(O)OC[C@H]1OC(O)[C@H](O)[C@@H](O)[C@@H]1O (stereo partly drawn) [D-Glucose-6-PO4] | − | − | − | 
D-Salicin | + | + | + | 
CC(=O)CC(=O)O [Acetoacetic Acid] | − | − | + | 
CCC(O)C(=O)O (stereo not drawn) [α-Hydroxy-Butyric Acid] | − | − | − | 
COC(=O)C(C)=O [Methyl Pyruvate] | + | + | + | 
O=C1CC[C@@H](C(=O)O)N1 [L-Pyroglutamic Acid] | +++ | + | + | 
OC[C@H]1O[C@H](O[C@H]2[C@H](O)[C@@H](O)[C@H](O)O[C@@H]2CO)[C@H](O)[C@@H](O)[C@@H]1O [D-Maltose] | + | − | + | −
